The source of these data is patent US7662814B2, “4-aminothieno[2,3-d]pyrimidine-6-carbonitrile derivatives as PDE7 inhibitors” (Laboratorios Almirall, S.A., priority 2003, dated 2010).

Broadly, the melting point is the temperature, or range, at which the solid turns liquid. The compound `COc1ccc(-c2nc(N3CCOCC3)c3c(C)c(C#N)sc3n2)cc1` [Example 22, 2-(4-Methoxyphenyl)-5-methyl-4-morpholin-4-ylthieno[2,3-d]pyrimidine-6-carbonitrile] yielded a melting point of 204 to 206 °C.

For `Cc1c(C#N)sc2nc(-c3ccc(Cl)cc3)nc(N3CCOCC3)c12` [Example 23, 2-(4-Chlorophenyl)-5-methyl-4-morpholin-4-ylthieno[2,3-d]pyrimidine-6-carbonitrile], the melting point lay within 205 to 207 °C.

In the case of `C#CCN(C)c1nc(-c2ccc(OC)cc2)nc2sc(C#N)c(C)c12` [Example 24, 2-(4-Methoxyphenyl)-5-methyl-4-[methyl(prop-2-ynyl)amino]thieno[2,3-d]pyrimidine-6-carbonitrile], the melting point fell in the range of 160 to 171 °C.

The compound `COc1ccc(-c2nc(N(C)CCO)c3c(C)c(C#N)sc3n2)cc1` [Example 25, 4-[(2-Hydroxyethyl)(methyl)amino]-2-(4-methoxyphenyl)-5-methylthieno[2,3-d]pyrimidine-6-carbonitrile] returned a melting point of 144 to 146 °C.

Turning to `CCN(C)c1nc(-c2ccc(OC)c(OC)c2)nc2sc(C#N)c(C)c12` [Example 26, 2-(3,4-Dimethoxyphenyl)-4-[ethyl(methyl)amino]-5-methylthieno[2,3-d]pyrimidine-6-carbonitrile], the melting point is 133 to 135 °C.

Compound `Cc1ccc(-c2nc(N3CCN(C)CC3)c3c(C)c(C#N)sc3n2)cc1` [Example 27, 5-Methyl-2-(4-methylphenyl)-4-(4-methylpiperazin-1-yl)thieno[2,3-d]pyrimidine-6-carbonitrile] displayed a melting point of 207 to 209 °C.

The compound `C=CCN(C)c1nc(-c2ccc(OC)cc2)nc2sc(C#N)c(C)c12` [Example 29, 4-[Allyl(methyl)amino]-2-(4-methoxyphenyl)-5-methylthieno[2,3-d]pyrimidine-6-carbonitrile] showed a melting point of 126 to 128 °C.

Compound `Cc1ccc(-c2nc(N3CCOCC3)c3c(C)c(C#N)sc3n2)cc1` [Example 32, 5-Methyl-2-(4-methylphenyl)-4-morpholin-4-ylthieno[2,3-d]pyrimidine-6-carbonitrile] came in with a melting point of 206 to 207 °C.

On to `Cc1c(C#N)sc2nc(-c3ccc(C(F)(F)F)cc3)nc(N3CCN(C)CC3)c12` [Example 33, 5-Methyl-4-(4-methylpiperazin-1-yl)-2-[4-(trifluoromethyl)phenyl]thieno[2,3-d]pyrimidine-6-carbonitrile], for which the melting point lay in the range of 187 to 189 °C.

`Cc1c(C#N)sc2nc(-c3ccc4c(c3)OCO4)nc(N3CCN(C)CC3)c12` [Example 34] displayed a melting point of 196 to 197 °C.

The compound `CCN(CC)c1nc(-c2ccc3c(c2)OCO3)nc2sc(C#N)c(C)c12` [Example 36, 2-(1,3-Benzodioxol-5-yl)-4-(diethylamino)-5-methylthieno[2,3-d]pyrimidine-6-carbonitrile] returned a melting point of 199 to 201 °C.

The compound `Cc1c(C#N)sc2nc(-c3ccc4c(c3)OCO4)nc(N3CCOCC3)c12` [Example 37, 2-(1,3-Benzodioxol-5-yl)-5-methyl-4-morpholin-4-ylthieno[2,3-d]pyrimidine-6-carbonitrile] came in with a melting point of 197 to 198 °C.

Regarding `CCN(C)c1nc(-c2ccncc2)nc2sc(C#N)c(C)c12` [Example 38, 4-[Ethyl(methyl)amino]-5-methyl-2-pyridin-4-ylthieno[2,3-d]pyrimidine-6-carbonitrile], the melting point lay within 162 to 164 °C.

Compound `CCN(C)c1nc(-c2cc(OC)c(OC)c(OC)c2)nc2sc(C#N)c(C)c12` [Example 39, 4-[Ethyl(methyl)amino]-5-methyl-2-(3,4,5-trimethoxyphenyl)thieno[2,3-d]pyrimidine-6-carbonitrile] yielded a melting point of 163 to 164 °C.

For `Cc1c(C#N)sc2nc(-c3ccncc3)nc(N3CCOCC3)c12` [Example 41, 5-Methyl-4-morpholin-4-yl-2-pyridin-4-ylthieno[2,3-d]pyrimidine-6-carbonitrile], the melting point was above 250 °C.

Consider `Cc1c(C#N)sc2nc(-c3ccncc3)nc(N(C)CCO)c12` [Example 42, 4-[(2-Hydroxyethyl)(methyl)amino]-5-methyl-2-pyridin-4-ylthieno[2,3-d]pyrimidine-6-carbonitrile], for which the melting point is 194 to 195 °C.

The compound `Cc1c(C#N)sc2nc(-c3ccc4c(c3)OCO4)nc(N(C)CCO)c12` [Example 43, 2-(1,3-Benzodioxol-5-yl)-4-[(2-hydroxyethyl)(methyl)amino]-5-methylthieno[2,3-d]pyrimidine-6-carbonitrile] yielded a melting point of 195 to 197 °C.

`CCN(CC)c1nc(-c2ccncc2)nc2sc(C#N)c(C)c12` [Example 45, 4-(Diethylamino)-5-methyl-2-pyridin-4-ylthieno[2,3-d]pyrimidine-6-carbonitrile] yielded a melting point of 169 to 171 °C.

Compound `COc1ccc(-c2nc(N(C)C)c3c(C)c(C#N)sc3n2)cc1OC` [Example 46, 2-(3,4-Dimethoxyphenyl)-4-(dimethylamino)-5-methylthieno[2,3-d]pyrimidine-6-carbonitrile] showed a melting point of 198 to 200 °C.

`CCCNc1nc(-c2ccc(OC)c(OC)c2)nc2sc(C#N)c(C)c12` [Example 47, 2-(3,4-Dimethoxyphenyl)-5-methyl-4-(propylamino)thieno[2,3-d]pyrimidine-6-carbonitrile] displayed a melting point of 179 to 181 °C.

The compound `Cc1c(C#N)sc2nc(-c3ccccc3)nc(N3CCN(C)CC3)c12` [Example 50, 5-Methyl-4-(4-methyl-piperazin-1-yl)-2-phenyl-thieno[2,3-d-]pyrimidine-6-carbonitrile] returned a melting point of 223 to 225 °C.

`COc1cc(-c2nc(N3CCOCC3)c3c(C)c(C#N)sc3n2)cc(OC)c1OC` [Example 51, 5-Methyl-4-morpholin-4-yl-2-(3,4,5-trimethoxy-phenyl)-thieno[2,3-d]pyrimidine-6-carbonitrile] displayed a melting point above 250 °C.

In turn, `COc1cc(-c2nc(N(C)CCO)c3c(C)c(C#N)sc3n2)cc(OC)c1OC` [Example 52, 4-[(2-Hydroxy-ethyl)-methyl-amino]-5-methyl-2-(3,4,5-trimethoxy-phenyl)-thieno[2,3-d]pyrimidine-6-carbonitrile] displayed a melting point of 164 to 166 °C.

With `CCN(C)c1nc(-c2cc(OC)cc(OC)c2)nc2sc(C#N)c(C)c12` [Example 55, 2-(3,5-Dimethoxy-phenyl)-4-(ethyl-methyl-amino)-5-methyl-thieno[2,3-d]pyrimidine-6-carbonitrile], the melting point was in the range of 145 to 148 °C.

In turn, `CCN(C)c1nc(-c2ccc(C(=O)OC)cc2)nc2sc(C#N)c(C)c12` [Example 57] returned a melting point of 125 to 128 °C.

Take `Cc1c(C#N)sc2nc(Cc3ccccc3)nc(N3CCOCC3)c12` [Example 58, 2-Benzyl-5-methyl-4-morpholin-4-yl-thieno[2,3-d]pyrimidine-6-carbonitrile]: the melting point lay within 88 to 90 °C.

In the case of `CCCCNc1nc(-c2cc(OC)c(OC)c(OC)c2)nc2sc(C#N)c(C)c12` [Example 69, 4-(Butylamino)-5-methyl-2-(3,4,5-trimethoxyphenyl)thieno[2,3-d]pyrimidine-6-carbonitrile], the melting point is 192 to 194 °C.

Consider `COc1cc(-c2nc(NC(C)C)c3c(C)c(C#N)sc3n2)cc(OC)c1OC` [Example 70, 4-(Isopropylamino)-5-methyl-2-(3,4,5-trimethoxyphenyl)thieno[2,3-d]pyrimidine-6-carbonitrile], for which the melting point was 191 to 193 °C.

The compound `CCC(C)Nc1nc(-c2cc(OC)c(OC)c(OC)c2)nc2sc(C#N)c(C)c12` (stereo not shown) [Example 71, 4-(sec-Butylamino)-5-methyl-2-(3,4,5-trimethoxyphenyl)thieno[2,3-d]pyrimidine-6-carbonitrile] came in with a melting point of 91 to 93 °C.

The compound `COc1cc(-c2nc(NCC(C)C)c3c(C)c(C#N)sc3n2)cc(OC)c1OC` [Example 72, 4-(Isobutylamino)-5-methyl-2-(3,4,5-trimethoxyphenyl)thieno[2,3-d]pyrimidine-6-carbonitrile] came in with a melting point of 182 to 184 °C.

In turn, `CCC(CC)Nc1nc(-c2cc(OC)c(OC)c(OC)c2)nc2sc(C#N)c(C)c12` [Example 73, 4-[(1-Ethylpropyl)amino]-5-methyl-2-(3,4,5-trimethoxyphenyl)thieno[2,3-d]pyrimidine-6-carbonitrile] returned a melting point of 226 to 228 °C.

The compound `COc1cc(-c2nc(NC(C)(C)C)c3c(C)c(C#N)sc3n2)cc(OC)c1OC` [Example 74, 4-(tert-Butylamino)-5-methyl-2-(3,4,5-trimethoxyphenyl)thieno[2,3-d]pyrimidine-6-carbonitrile] displayed a melting point of 195 to 197 °C.

`COc1cc(-c2nc(NC3CCCC3)c3c(C)c(C#N)sc3n2)cc(OC)c1OC` [Example 77, 4-(Cyclopentylamino)-5-methyl-2-(3,4,5-trimethoxyphenyl)thieno[2,3-d]pyrimidine-6-carbonitrile] displayed a melting point of 218 to 220 °C.

With `C=CCN(C)c1nc(-c2cc(OC)c(OC)c(OC)c2)nc2sc(C#N)c(C)c12` [Example 78, 4-[Allyl(methyl)amino]-5-methyl-2-(3,4,5-trimethoxyphenyl)thieno[2,3-d]pyrimidine-6-carbonitrile], the melting point is 162 to 164 °C.

For `COc1cc(-c2nc(N3CCNC(C)C3)c3c(C)c(C#N)sc3n2)cc(OC)c1OC` (stereo not shown) [Example 83, 5-Methyl-4-(3-methylpiperazin-1-yl)-2-(3,4,5-trimethoxyphenyl)thieno[2,3-d]pyrimidine-6-carbonitrile], the melting point is 213 to 215 °C.

`COc1cc(-c2nc(N3CCN(C(C)=O)CC3)c3c(C)c(C#N)sc3n2)cc(OC)c1OC` [Example 85, 4-(4-Acetylpiperazin-1-yl)-5-methyl-2-(3,4,5-trimethoxyphenyl)thieno[2,3-d]pyrimidine-6-carbonitrile] returned a melting point of 211 to 213 °C.

For the compound `COc1cc(-c2nc(N(C)CCN)c3c(C)c(C#N)sc3n2)cc(OC)c1OC` [Example 86, 4-[(2-Aminoethyl)(methyl)amino]-5-methyl-2-(3,4,5-trimethoxyphenyl)thieno[2,3-d]pyrimidine-6-carbonitrile], the melting point was above 290 °C.
